From patent EP1285920A1, “C10 Ester sustituted taxanes as antitumor agents” (Florida State University Research Foundation, Inc., priority 2001, dated 2003)
pIC50: −log10 of the molar value.

Tested on: HCT116
Test: In Vitro cytotoxicity measured by the cell colony formation assay
Format: cell-based, human
Details: Homo sapiens, HCT-116; read-out: IN VITRO ID 50 HCT116
How it was run: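 Four hundred cells per dish in McCoy's 5a medium with 10% FBS were allowed to attach for 5 h at 37 °C. They were then exposed to compound for 72 h at 37 °C, added as a 10× stock made fresh in medium. After HBSS rinsing and refeeding, colonies were counted after 7 days.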

SMILES | pIC50
C/C=C/C(=O)N[C@@H](c1ccco1)[C@@H](O)C(=O)O[C@H]1C[C@@]2(O)[C@@H](OC(=O)c3ccccc3)[C@@H]3[C@]4(OC(C)=O)CO[C@@H]4C[C@H](O)[C@@]3(C)C(=O)[C@H](OC(=O)C3CC3)C(=C1C)C2(C)C [Compound 3971] | > 9.00
C/C=C/C(=O)N[C@@H](c1ccco1)[C@@H](O)C(=O)O[C@H]1C[C@@]2(O)[C@@H](OC(=O)c3ccccc3)[C@@H]3[C@]4(OC(C)=O)CO[C@@H]4C[C@H](O)[C@@]3(C)C(=O)[C@H](OC(=O)CC)C(=C1C)C2(C)C [Compound 3982] | > 9.00
CCOC(=O)N[C@@H](c1cccs1)[C@@H](O)C(=O)O[C@H]1C[C@@]2(O)[C@@H](OC(=O)c3ccccc3)[C@@H]3[C@]4(OC(C)=O)CO[C@@H]4C[C@H](O)[C@@]3(C)C(=O)[C@H](OC(=O)C3CC3)C(=C1C)C2(C)C [Compound 4051] | > 9.00
CCCC(=O)N[C@@H](c1ccco1)[C@@H](O)C(=O)O[C@H]1C[C@@]2(O)[C@@H](OC(=O)c3ccccc3)[C@@H]3[C@]4(OC(C)=O)CO[C@@H]4C[C@H](O)[C@@]3(C)C(=O)[C@H](OC(=O)C3CC3)C(=C1C)C2(C)C [Compound 4062] | > 9.00
CC(=O)O[C@@]12CO[C@@H]1C[C@H](O)[C@@]1(C)C(=O)[C@H](OC(=O)C3CC3)C3=C(C)[C@@H](OC(=O)[C@H](O)[C@@H](NC(=O)c4cccnc4)c4cccs4)C[C@@](O)([C@@H](OC(=O)c4ccccc4)[C@H]21)C3(C)C [Compound 4112] | > 8.00
CCC(=O)O[C@H]1C(=O)[C@@]2(C)[C@H]([C@H](OC(=O)c3ccccc3)[C@]3(O)C[C@H](OC(=O)[C@H](O)[C@@H](NC(=O)c4cccnc4)c4cccs4)C(C)=C1C3(C)C)[C@]1(OC(C)=O)CO[C@@H]1C[C@@H]2O [Compound 4121] | > 8.00
CCCC(=O)O[C@H]1C(=O)[C@@]2(C)[C@H]([C@H](OC(=O)c3ccccc3)[C@]3(O)C[C@H](OC(=O)[C@H](O)[C@@H](NC(=O)c4cccnc4)c4cccs4)C(C)=C1C3(C)C)[C@]1(OC(C)=O)CO[C@@H]1C[C@@H]2O [Compound 4190] | > 8.00
CCC(=O)O[C@H]1C(=O)[C@@]2(C)[C@H]([C@H](OC(=O)c3ccccc3)[C@]3(O)C[C@H](OC(=O)[C@H](O)[C@@H](NC(=O)c4ccncc4)c4cccs4)C(C)=C1C3(C)C)[C@]1(OC(C)=O)CO[C@@H]1C[C@@H]2O [Compound 4207] | > 8.00
CC(=O)O[C@@]12CO[C@@H]1C[C@H](O)[C@@]1(C)C(=O)[C@H](OC(=O)C3CC3)C3=C(C)[C@@H](OC(=O)[C@H](O)[C@@H](NC(=O)C=C(C)C)c4cccs4)C[C@@](O)([C@@H](OC(=O)c4ccccc4)[C@H]21)C3(C)C [Compound 4329] | > 9.00
CCC(=O)O[C@H]1C(=O)[C@@]2(C)[C@H]([C@H](OC(=O)c3ccccc3)[C@]3(O)C[C@H](OC(=O)[C@H](O)[C@@H](NC(=O)C=C(C)C)c4cccs4)C(C)=C1C3(C)C)[C@]1(OC(C)=O)CO[C@@H]1C[C@@H]2O [Compound 4335] | > 9.00
CCCC(=O)O[C@H]1C(=O)[C@@]2(C)[C@H]([C@H](OC(=O)c3ccccc3)[C@]3(O)C[C@H](OC(=O)[C@H](O)[C@@H](NC(=O)C=C(C)C)c4cccs4)C(C)=C1C3(C)C)[C@]1(OC(C)=O)CO[C@@H]1C[C@@H]2O [Compound 4344] | > 9.00
CC(=O)O[C@@]12CO[C@@H]1C[C@H](O)[C@@]1(C)C(=O)[C@H](OC(=O)C3CC3)C3=C(C)[C@@H](OC(=O)[C@H](O)[C@@H](NC(=O)OCC(C)C)c4ccoc4)C[C@@](O)([C@@H](OC(=O)c4ccccc4)[C@H]21)C3(C)C [Compound 4665] | > 8.00
CCCC(=O)O[C@H]1C(=O)[C@@]2(C)[C@H]([C@H](OC(=O)c3ccccc3)[C@]3(O)C[C@H](OC(=O)[C@H](O)[C@@H](NC(=O)OCC(C)C)c4ccoc4)C(C)=C1C3(C)C)[C@]1(OC(C)=O)CO[C@@H]1C[C@@H]2O [Compound 4704] | > 8.00
CCC(=O)O[C@H]1C(=O)[C@@]2(C)[C@H]([C@H](OC(=O)c3ccccc3)[C@]3(O)C[C@H](OC(=O)[C@H](O)[C@@H](NC(=O)OCC(C)C)c4ccsc4)C(C)=C1C3(C)C)[C@]1(OC(C)=O)CO[C@@H]1C[C@@H]2O [Compound 4711] | > 8.00
CC(=O)O[C@@]12CO[C@@H]1C[C@H](O)[C@@]1(C)C(=O)[C@H](OC(=O)C3CC3)C3=C(C)[C@@H](OC(=O)[C@H](O)[C@H](C=C(C)C)NC(=O)OCC(C)C)C[C@@](O)([C@@H](OC(=O)c4ccccc4)[C@H]21)C3(C)C [Compound 4720] | > 8.00
CCC(=O)O[C@H]1C(=O)[C@@]2(C)[C@H]([C@H](OC(=O)c3ccccc3)[C@]3(O)C[C@H](OC(=O)[C@H](O)[C@@H](NC(=O)OCC(C)C)C4CC4)C(C)=C1C3(C)C)[C@]1(OC(C)=O)CO[C@@H]1C[C@@H]2O [Compound 4799] | > 9.00
CCCC(=O)O[C@H]1C(=O)[C@@]2(C)[C@H]([C@H](OC(=O)c3ccccc3)[C@]3(O)C[C@H](OC(=O)[C@H](O)[C@@H](NC(=O)OCC(C)C)C4CC4)C(C)=C1C3(C)C)[C@]1(OC(C)=O)CO[C@@H]1C[C@@H]2O [Compound 4808] | > 8.00
CCCC(=O)O[C@H]1C(=O)[C@@]2(C)[C@H]([C@H](OC(=O)c3ccccc3)[C@]3(O)C[C@H](OC(=O)[C@H](O)[C@@H](NC(=O)OCC(C)C)c4ccsc4)C(C)=C1C3(C)C)[C@]1(OC(C)=O)CO[C@@H]1C[C@@H]2O [Compound 4834] | > 8.00
C/C=C/C(=O)N[C@@H](c1ccoc1)[C@@H](O)C(=O)O[C@H]1C[C@@]2(O)[C@@H](OC(=O)c3ccccc3)[C@@H]3[C@]4(OC(C)=O)CO[C@@H]4C[C@H](O)[C@@]3(C)C(=O)[C@H](OC(=O)CC)C(=C1C)C2(C)C [Compound 4888] | > 9.00
C/C=C/C(=O)N[C@@H](c1ccoc1)[C@@H](O)C(=O)O[C@H]1C[C@@]2(O)[C@@H](OC(=O)c3ccccc3)[C@@H]3[C@]4(OC(C)=O)CO[C@@H]4C[C@H](O)[C@@]3(C)C(=O)[C@H](OC(=O)CCC)C(=C1C)C2(C)C [Compound 4919] | > 9.00
CC=CC(=O)NC(c1ccoc1)C(O)C(=O)OC1CC2(O)C(OC(=O)c3ccccc3)C3C4(OC(C)=O)COC4CC(O)C3(C)C(=O)C(OC(=O)C3CC3)C(=C1C)C2(C)C (stereo not drawn) [Compound 4944] | > 9.00
CC(=O)OC12COC1CC(O)C1(C)C(=O)C(OC(=O)C3CC3)C3=C(C)C(OC(=O)C(O)C(NC(=O)OCC(C)C)c4ccsc4)CC(O)(C(OC(=O)c4ccccc4)C21)C3(C)C (stereo not drawn) [Compound 5011] | > 8.00
CC=CC(=O)NC(c1ccsc1)C(O)C(=O)OC1CC2(O)C(OC(=O)c3ccccc3)C3C4(OC(C)=O)COC4CC(O)C3(C)C(=O)C(OC(=O)C3CC3)C(=C1C)C2(C)C (stereo not drawn) [Compound 5040] | > 9.00
CCC(=O)OC1C(=O)C2(C)C(O)CC3OCC3(OC(C)=O)C2C(OC(=O)c2ccccc2)C2(O)CC(OC(=O)C(O)C(C=C(C)C)NC(=O)OCC(C)C)C(C)=C1C2(C)C (stereo not drawn) [Compound 5065] | > 8.00
CCCC(=O)OC1C(=O)C2(C)C(O)CC3OCC3(OC(C)=O)C2C(OC(=O)c2ccccc2)C2(O)CC(OC(=O)C(O)C(C=C(C)C)NC(=O)OCC(C)C)C(C)=C1C2(C)C (stereo not drawn) [Compound 5144] | > 8.00
CC(=O)OC12COC1CC(O)C1(C)C(=O)C(OC(=O)C3CC3)C3=C(C)C(OC(=O)C(O)C(NC(=O)OCC(C)C)C4CC4)CC(O)(C(OC(=O)c4ccccc4)C21)C3(C)C (stereo not drawn) [Compound 5232] | > 8.00
CCC(=O)OC1C(=O)C2(C)C(O)CC3OCC3(OC(C)=O)C2C(OC(=O)c2ccccc2)C2(O)CC(OC(=O)C(O)C(NC(=O)OC(C)(C)C)c3ccoc3)C(C)=C1C2(C)C (stereo not drawn) [Compound 5495] | > 9.00
